As usually defined, the IC50 is the midpoint of a concentration-inhibition curve.

These results are taken from article PMC10508830 (Antiviral research, 2023).

The assay addresses NA of A/Alabama/03/2020 A(H1N1)pdm09 (H275Y) (Influenza A virus, UniProt A0A0X9QTS2, H275Y). The class given is biochemical. The conditions noted are these: for IC50: read-out: Mean IC50 ± SD.

For peramivir, the IC50 fold-change is on record as 15.25 ± 2.11 (254) fold and the IC50 worked out at 0.0152 µM.

As for oseltamivir carboxylate, the IC50 is 0.23 µM.
